Values belong to the compound of their own block, whether it stands above or below them.
Columns and labels:
[1] = system: A375 (human amelanotic melanoma) cells; test: Cell uptake studies in A375 cells; assay type: cell-based
Description: A375 (human amelanotic melanoma) cells were purchased from American Type Culture Collection (Manassas, VA, USA) and cultured in RPMI-1640 medium (Sigma-Aldrich, St. Louis, MO, USA) supplemented with 10% foetal calf serum (Invitrogen, CA, USA) and 2 mM L-glutamine (Sigma). Cells were maintained in 175 cm^2 flasks in at 37°C in 5% CO2:95% atmosphere humidified incubator and grown to sub-confluent monolayers before being detached using trypsin for use in animal models.
In 24-well culture plates, 2.5 × 10^5 cells were seeded in complete medium and left to attach overnight. The following day, the number of cells per well was counted in triplicate. Before incubation with the radiotracer, the growth media was removed and the cells were washed once with warm PBS to remove all traces of growth media. ^18F-SIG343 or ^18F-SIG353 was formulated in warm PBS containing 0.1% Tween-80. Freshly prepared radiotracer (0.37 MBq in 500 μL) was added and the cells were incubated at 37°C for 2, 15, 30, 60 and 120 min. Uptake was terminated by removing the tracer solution and washing cells with ice-cold PBS. Subsequently, the cells were lysed with 500 μL of 0.2 N NaOH. The radioactivity in the cell lysate was measured with a Wallac 1480 γ-counter (PerkinElmer, MA, USA). The results were expressed as percentage of applied dose per 1 × 10^5 cells. All activities were corrected for decay. Optimal uptake time will be selected for inhibition cell uptake studies.

[2] = PET/CT imaging studies in A375 tumour-bearing mice; assay type: in vivo; details: 120-min PET scan
Description: The mouse was anaesthetised via inhalant isoflurane (Forthane, Abbott Laboratories, IL, USA) (5% induction, 1% to 3% maintenance in 200 mL/min oxygen). Respiration and heart rates of the animal were monitored (BioVet; m2m Imaging Corp, Cleveland, OH, USA) during the entire scanning period. The core body temperature of the animals was maintained via a temperature-controlled heating pad. The mouse was injected intravenously with 4.6 to 16.7 MBq of ^18F-SIG343 or ^18F-SIG353, with a constant mass of the unlabelled compounds of 0.06 nmol in 100 μL of saline (n = 3). A 120-min PET scan was performed on an Inveon multimodality positron emission tomography-computed tomography (PET/CT) system (Siemens Medical Solutions, Knoxville, TN, USA) followed by a 10-min CT scan on each subject for anatomical information. Image acquisition commenced simultaneously with radiotracer injection. The data was histogrammed into 25 consecutive frames, and activity volumes were reconstructed with an iterative reconstruction (OSEM/MAP) including attenuation and scatter correction, achieving a reconstructed spatial resolution of 1.5 mm. […] Regional activity data (Bq/cc) were extracted from nine selected volumes/regions of interest (VOIs/ROIs) where σ receptor distribution was reported and the tail and expressed as percentage of injected dose per cubic centimetres (%ID/cc).

[3] = Biodistribution studies in A375 tumour-bearing mice; assay type: in vivo, Balb/C nude mice; details: for Biodistribution, Blood / Biodistribution, Brain / Biodistribution, Femur / Biodistribution, Heart / Biodistribution, Kidneys / Biodistribution, Liver / Biodistribution, Lungs / Biodistribution, Ovaries / Biodistribution, Pancreas / Biodistribution, Spleen / Biodistribution, Tumour: i.v., ± SEM, n = 5
Description: Female Balb/C nude mice aged 5 to 6 weeks old were obtained from the Animal Resource Centre (Perth, Australia). The animals were kept at a constant temperature of 22°C ± 2°C on a 12/12 h light/dark cycle with lights on at 09:00 am. Food and water were freely available. After a week of acclimatisation, mice were injected subcutaneously in the left flank with 1 × 10^6 A375 human amelanotic melanoma cells, in 100 μL of Ca^2+/Mg^2+-free phosphate buffered saline. The procedure was performed without anaesthetic. For in vivo studies, A375 tumour-bearing mice were used 26 days after tumour inoculation.
Tumour-bearing mice were used to examine the tissue distribution of radioactivity after intravenous injection into the tail vein of 1 MBq of ^18F-SIG343 or ^18F-SIG353 in 100 μL of saline. At 15, 30, 60, and 120 min post injection of the radiotracer, groups of mice (n = 5) were sacrificed by CO2 administration followed by cervical […] and dissection. Selected organs were weighed, and the radioactivity was measured using a γ-counter. The percentage of injected dose (%ID) was calculated by comparison with suitable dilutions of the injected dose. Radioactivity concentrations were expressed as percentage of injected dose per gram of wet tissue (%ID/g), assuming a uniform density of 1 g/cm^3. Data were corrected for the radioactivity decay and tail injected dose and normalised for the standard mouse body weight (20 g). The remaining activity in the carcass was also determined in order to obtain the total activity in the mouse (background activity) at each time point.
Selected tumour-to-organ (tumour-to-blood and tumour-to-muscle) uptake ratios (TORs), were calculated by dividing the tumour radioactivity concentration (%ID/g) by the radioactivity concentration in the respective organ at time t. Comparisons of organ radioactivity concentrations (%ID/g) and TORs in the biodistribution studies or %ID/cc in PET imaging studies between the two radiotracers were performed using separate unpaired, two-tailed Student's t tests, matched organs and time points.

[4] = declined after 60 min (up to 120 min)

Tumour uptake by PET imaging [2]: 0.9 %ID/cc
Biodistribution, Blood ([3]; 15 min post injection): 0.9 ± 0.1 %ID/g
Biodistribution, Brain ([3]; 15 min post injection): 9.6 ± 0.2^ *** %ID/g
Biodistribution, Femur ([3]; 15 min post injection): 4.5 ± 0.4 %ID/g
Biodistribution, Heart ([3]; 15 min post injection): 5.5 ± 0.4 %ID/g
Biodistribution, Kidneys ([3]; 15 min post injection): 26.1 ± 0.6 %ID/g
Biodistribution, Liver ([3]; 15 min post injection): 16.0 ± 0.9^ ** %ID/g
Biodistribution, Lungs ([3]; 15 min post injection): 30.3 ± 1.2^ *** %ID/g
Biodistribution, Ovaries ([3]; 15 min post injection): 10.8 ± 1.8 %ID/g
Biodistribution, Pancreas ([3]; 15 min post injection): 42.9 ± 2.8^ * %ID/g
Biodistribution, Spleen ([3]; 15 min post injection): 14.6 ± 1.2 %ID/g
Biodistribution, Tumour ([3]; 15 min post injection): 3.1 ± 0.5 %ID/g
Biodistribution, Blood ([3]; 30 min post injection): 0.7 ± 0.04 %ID/g
Biodistribution, Brain ([3]; 30 min post injection): 8.8 ± 0.6^ *** %ID/g
Biodistribution, Femur ([3]; 30 min post injection): 4.3 ± 0.2 %ID/g
Biodistribution, Heart ([3]; 30 min post injection): 3.5 ± 0.2^ ** %ID/g
Biodistribution, Kidneys ([3]; 30 min post injection): 19.8 ± 0.9^ *** %ID/g
Biodistribution, Liver ([3]; 30 min post injection): 21.9 ± 0.8^ *** %ID/g
Biodistribution, Lungs ([3]; 30 min post injection): 17.4 ± 0.7^ *** %ID/g
Biodistribution, Ovaries ([3]; 30 min post injection): 14.0 ± 2.2 %ID/g
Biodistribution, Pancreas ([3]; 30 min post injection): 50.2 ± 2.0^ *** %ID/g
Biodistribution, Spleen ([3]; 30 min post injection): 15.2 ± 1.1^ * %ID/g
Biodistribution, Tumour ([3]; 30 min post injection): 3.0 ± 0.1^ * %ID/g
Biodistribution, Blood ([3]; 60 min post injection): 0.6 ± 0.1 %ID/g
Biodistribution, Brain ([3]; 60 min post injection): 7.1 ± 0.4^ *** %ID/g
Biodistribution, Femur ([3]; 60 min post injection): 3.8 ± 0.1 %ID/g
Biodistribution, Heart ([3]; 60 min post injection): 1.9 ± 0.04^ ** %ID/g
Biodistribution, Kidneys ([3]; 60 min post injection): 12.0 ± 0.6^ ** %ID/g
Biodistribution, Liver ([3]; 60 min post injection): 15.2 ± 1.1^ *** %ID/g
Biodistribution, Lungs ([3]; 60 min post injection): 9.9 ± 0.3^ *** %ID/g
Biodistribution, Ovaries ([3]; 60 min post injection): 13.5 ± 2.2 %ID/g
Biodistribution, Pancreas ([3]; 60 min post injection): 64.4 ± 3.5^ *** %ID/g
Biodistribution, Spleen ([3]; 60 min post injection): 12.8 ± 0.9^ *** %ID/g
Biodistribution, Tumour ([3]; 60 min post injection): 3.5 ± 0.3^ * %ID/g
Biodistribution, Blood ([3]; 120 min post injection): 0.4 ± 0.01 %ID/g
Biodistribution, Brain ([3]; 120 min post injection): 5.2 ± 0.7^ *** %ID/g
Biodistribution, Femur ([3]; 120 min post injection): 3.2 ± 0.1 %ID/g
Biodistribution, Heart ([3]; 120 min post injection): 1.1 ± 0.1 %ID/g
Biodistribution, Kidneys ([3]; 120 min post injection): 7.5 ± 0.4 %ID/g
Biodistribution, Liver ([3]; 120 min post injection): 19.8 ± 0.9^ * %ID/g
Biodistribution, Lungs ([3]; 120 min post injection): 5.0 ± 0.3 %ID/g
Biodistribution, Ovaries ([3]; 120 min post injection): 11.5 ± 1.4 %ID/g
Biodistribution, Pancreas ([3]; 120 min post injection): 61.7 ± 3.4^ *** %ID/g
Biodistribution, Spleen ([3]; 120 min post injection): 8.5 ± 0.2^ *** %ID/g
Biodistribution, Tumour ([3]; 120 min post injection): 3.9 ± 0.2 %ID/g
Tumour-to-blood uptake ratio ([3]; at 120 min): eight- to ninefold
Tumour-to-muscle uptake ratio ([3]; at 120 min): 4
SMILES: COc1cc2c(cc1OC)CN(CCCCN1C(=O)c3ccc([18F])cc3C1=O)CC2 [^18F-SIG343]
Cell uptake, percentage of applied dose per 1 × 10^5 cells ([1]; after 2 min, 37°C): approximately 2%
Cell uptake, percentage of applied dose per 1 × 10^5 cells ([1]; between 15 and 60 min (peak/plateau)): 2%
Cell uptake, percentage of applied dose per 1 × 10^5 cells [1, 4]: 1.6%

Tumour uptake by PET imaging [2]: 1.3 %ID/cc
Biodistribution, Blood ([3]; 15 min post injection): 1.2 ± 0.03 %ID/g
Biodistribution, Brain ([3]; 15 min post injection): 4.4 ± 0.2 %ID/g
Biodistribution, Femur ([3]; 15 min post injection): 5.3 ± 0.3 %ID/g
Biodistribution, Heart ([3]; 15 min post injection): 4.5 ± 0.2 %ID/g
Biodistribution, Kidneys ([3]; 15 min post injection): 23.4 ± 2.0 %ID/g
Biodistribution, Liver ([3]; 15 min post injection): 23.5 ± 2.0 %ID/g
Biodistribution, Lungs ([3]; 15 min post injection): 17.4 ± 0.5 %ID/g
Biodistribution, Ovaries ([3]; 15 min post injection): 10.0 ± 0.9 %ID/g
Biodistribution, Pancreas ([3]; 15 min post injection): 56.4 ± 4.7 %ID/g
Biodistribution, Spleen ([3]; 15 min post injection): 15.7 ± 1.1 %ID/g
Biodistribution, Tumour ([3]; 15 min post injection): 3.8 ± 0.3 %ID/g
Biodistribution, Blood ([3]; 30 min post injection): 1.0 ± 0.1 %ID/g
Biodistribution, Brain ([3]; 30 min post injection): 2.3 ± 0.1 %ID/g
Biodistribution, Femur ([3]; 30 min post injection): 4.7 ± 0.2 %ID/g
Biodistribution, Heart ([3]; 30 min post injection): 2.5 ± 0.1 %ID/g
Biodistribution, Kidneys ([3]; 30 min post injection): 13.3 ± 0.8 %ID/g
Biodistribution, Liver ([3]; 30 min post injection): 33.0 ± 1.8 %ID/g
Biodistribution, Lungs ([3]; 30 min post injection): 8.6 ± 0.4 %ID/g
Biodistribution, Ovaries ([3]; 30 min post injection): 11.8 ± 1.5 %ID/g
Biodistribution, Pancreas ([3]; 30 min post injection): 72.8 ± 2.4 %ID/g
Biodistribution, Spleen ([3]; 30 min post injection): 12.0 ± 0.6 %ID/g
Biodistribution, Tumour ([3]; 30 min post injection): 3.8 ± 0.3 %ID/g
Biodistribution, Blood ([3]; 60 min post injection): 0.7 ± 0.02 %ID/g
Biodistribution, Brain ([3]; 60 min post injection): 1.3 ± 0.01 %ID/g
Biodistribution, Femur ([3]; 60 min post injection): 3.8 ± 0.2 %ID/g
Biodistribution, Heart ([3]; 60 min post injection): 1.7 ± 0.02 %ID/g
Biodistribution, Kidneys ([3]; 60 min post injection): 8.7 ± 0.3 %ID/g
Biodistribution, Liver ([3]; 60 min post injection): 32.6 ± 1.0 %ID/g
Biodistribution, Lungs ([3]; 60 min post injection): 6.1 ± 0.1 %ID/g
Biodistribution, Ovaries ([3]; 60 min post injection): 9.6 ± 1.5 %ID/g
Biodistribution, Pancreas ([3]; 60 min post injection): 94.3 ± 4.2 %ID/g
Biodistribution, Spleen ([3]; 60 min post injection): 7.7 ± 0.4 %ID/g
Biodistribution, Tumour ([3]; 60 min post injection): 4.6 ± 0.2 %ID/g
Biodistribution, Blood ([3]; 120 min post injection): 0.7 ± 0.03 %ID/g
Biodistribution, Brain ([3]; 120 min post injection): 0.8 ± 0.02 %ID/g
Biodistribution, Femur ([3]; 120 min post injection): 3.9 ± 0.1 %ID/g
Biodistribution, Heart ([3]; 120 min post injection): 1.3 ± 0.1 %ID/g
Biodistribution, Kidneys ([3]; 120 min post injection): 7.1 ± 0.2 %ID/g
Biodistribution, Liver ([3]; 120 min post injection): 24.1 ± 1.4 %ID/g
Biodistribution, Lungs ([3]; 120 min post injection): 4.7 ± 0.2 %ID/g
Biodistribution, Ovaries ([3]; 120 min post injection): 12.2 ± 3.1 %ID/g
Biodistribution, Pancreas ([3]; 120 min post injection): 119.2 ± 1.6 %ID/g
Biodistribution, Spleen ([3]; 120 min post injection): 5.5 ± 0.2 %ID/g
Biodistribution, Tumour ([3]; 120 min post injection): 4.8 ± 0.4 %ID/g
Tumour-to-blood uptake ratio ([3]; at 120 min): eight- to ninefold
SMILES: COc1cc2c(cc1OC)CN(CCCCCN1C(=O)c3ccc([18F])cc3C1=O)CC2 [^18F-SIG353]
Cell uptake, percentage of applied dose per 1 × 10^5 cells ([1]; after 2 min, 37°C): approximately 2%
Cell uptake, percentage of applied dose per 1 × 10^5 cells [1, 4]: 2.3%

From paper PMC3878827, “Synthesis and biological characterisation of ^18F-SIG343 and ^18F-SIG353, novel and high selectivity σ2 radiotracers, for tumour imaging properties” (EJNMMI Research, 2013)
